# Experimental data taken from patent US10709743B2, “Pharmaceutical wound healing composition” (Council of Scientific and Industrial Research, priority 2015, dated 2020).
# Several values for one entry are separate records, joined by “and”; a condition that tells them apart may be missing. Identical values can stand only once.
# How the values were obtained:
# [1] = tested on: Wister rats (Male); experiment: Incision wound model, wound size measurement; assay type: in vivo; parameters: unit not given here; conditions: average of six animals
# Procedure: The animals were housed in a standard individual metal cages and room was maintained at 22±1° C. with an alternating 12 h light-dark cycle. Food and water were provided ad libitum. All the experiments on animals were conducted after obtaining permission from Institutional Animal Ethical Committee of the Institute.
# Animals were divided into two groups (six animals each).
# All animals of two groups were anesthetized with an aesthetic ether, and a paravertebral long incision of 4.4 cm length were made through the skin and cutaneous muscle at a distance about 1.5 cm from the middle on right side of the depilated back.
# All groups (A and B) of animals received sufficient amount of formulation applied externally (as depicted in table No. 2). All the test formulations were applied once a day for 10 days starting from the day of incision. Wound-healing property was evaluated by wound length and wound closure time.
# Every alternative days wound size contraction was measured. By placing transparent blotting paper carefully on the wounded part of rats marking were done by permanent marker and size of reduction in wound noted.
# [2] = tested on: Wister rats (Male); experiment: Incision wound model, wound size measurement; assay type: in vivo; parameters: unit not given here; conditions: individual animals SR NO 1-6, applied once a day
# [3] = cited from earlier work
Substance,wound size AVG ([1]; DAY 2),wound size AVG ([1]; DAY 10),wound size AVG ([1]; DAY-4),wound size AVG ([1]; DAY-6),wound size AVG ([1]; DAY-8),wound size ([2]; DAY 2),wound size ([2]; DAY 10),wound size ([2]; DAY-4),wound size ([2]; DAY-6),wound size ([2]; DAY-8),"scavenging of hydroxyl, superoxide and DPPH radicals ([3]; ESR and ultraviolet spectrophotometry)",antioxidative activity on the peroxidation of linoleic acid ([3]; linoleic acid system)
Sericin [Group C],26.83,6.5,24.33,23.33,16.33,26 (2×) and 24 and 25 and 30 (2×),9 and 6 (3×) and 7 and 5,21 and 23 (2×) and 27 and 28 and 24,20 and 22 (2×) and 25 and 27 and 24,18 and 16 (3×) and 17 and 15,,
silk sericin,,,,,,,,,,,strong scavenging capacity,potent antioxidative activity
